Measurements reported in PubChem BioAssay AID248 (DTP/NCI, 2004).
Values joined by “and” are separate entries in the source; they are usually repeats but may differ in a detail not shown here. Equal values may be shown once. Inconclusive results and toxic doses are left out. No stated cut-off is given here; in the data, active means T/C of 150% or more; inactive means T/C below 125%.

System: L1210 leukemia ip in BDF1 mice, survival T/C
Assay: NCI In Vivo Anticancer Drug Screen. Data for tumor model L1210 Leukemia (intraperitoneal) in B6D2F1 (BDF1) mice
Conditions: endpoint: mean survival time, higher = longer survival
Summary of the method: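 Each compound was tested against a transplantable tumor grown in mice. The endpoint was survival, with treated animals benchmarked against vehicle controls as a simple ratio.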

[1] = dose: 100.0 mg/kg/injection, schedule: Q01DX009 (ip), vehicle: saline with Tween-80
[2] = dose: 100.0 mg/kg/injection, schedule: Q04DX003 (ip), vehicle: saline with Tween-80
[3] = dose: 200.0 mg/kg/injection, schedule: Q04DX003 (ip), vehicle: saline with Tween-80
[4] = dose: 400.0 mg/kg/injection, schedule: Q04DX003 (ip), vehicle: saline with Tween-80
[5] = dose: 100.0 mg/kg/injection, schedule: Q01DX001 (ip), vehicle: Klucel (hydroxypropylcellulose) (HPC)
[6] = dose: 200.0 mg/kg/injection, schedule: Q01DX001 (ip), vehicle: Klucel (hydroxypropylcellulose) (HPC)
[7] = dose: 100.0 mg/kg/injection, schedule: Q01DX009 (ip), vehicle: saline
[8] = dose: 200.0 mg/kg/injection, schedule: Q01DX009 (ip), vehicle: saline
[9] = dose: 400.0 mg/kg/injection, schedule: Q01DX001 (ip), vehicle: Klucel (hydroxypropylcellulose) (HPC)
[10] = dose: 50.0 mg/kg/injection, schedule: Q01DX009 (ip), vehicle: saline
[11] = dose: 12.5 mg/kg/injection, schedule: Q04DX002 (ip), vehicle: saline
[12] = dose: 25.0 mg/kg/injection, schedule: Q04DX002 (ip), vehicle: saline

Measured: T/C

O=C(O)Cn1c(C(F)(F)F)nc2nc(Cl)c(Cl)nc21
inactive: [1] 89 % of control | [2] 94 % of control | dose: 200.0 mg/kg/injection, schedule: Q01DX009 (ip), vehicle: saline with Tween-80 100 % of control | [3] 94 % of control | dose: 400.0 mg/kg/injection, schedule: Q01DX009 (ip), vehicle: saline with Tween-80 92 % of control | [4] 97 % of control

Nc1ccc2nc3ccc(=O)cc-3n(-c3ccccc3)c2c1
inactive: dose: 0.5 mg/kg/injection, schedule: Q01DX Z (ip), vehicle: methylcellulose (MC) 108 % of control | dose: 0.9 mg/kg/injection, schedule: Q01DX Z (ip), vehicle: methylcellulose (MC) 96 % of control and 103 % of control | dose: 1.0 mg/kg/injection, schedule: Q01DX Z (ip), vehicle: methylcellulose (MC) 112 % of control | dose: 1.4 mg/kg/injection, schedule: Q01DX Z (ip), vehicle: methylcellulose (MC) 109 % of control and 110 % of control | dose: 2.0 mg/kg/injection, schedule: Q01DX Z (ip), vehicle: methylcellulose (MC) 116 % of control | dose: 2.1 mg/kg/injection, schedule: Q01DX Z (ip), vehicle: methylcellulose (MC) 107 % of control and 119 % of control | dose: 3.2 mg/kg/injection, schedule: Q01DX Z (ip), vehicle: methylcellulose (MC) 105 % of control and 122 % of control | dose: 5.0 mg/kg/injection, schedule: Q01DX001 (ip), vehicle: carboxymethylcellulose (CMC) 96 % of control | dose: 10.0 mg/kg/injection, schedule: Q01DX001 (ip), vehicle: carboxymethylcellulose (CMC) 105 % of control | dose: 20.0 mg/kg/injection, schedule: Q01DX001 (ip), vehicle: carboxymethylcellulose (CMC) 111 % of control | dose: 40.0 mg/kg/injection, schedule: Q01DX001 (ip), vehicle: carboxymethylcellulose (CMC) 113 % of control

CCCOC(=O)c1ccc([N+](=O)[O-])o1
inactive: [5] 95 % of control | [6] 92 % of control

CNC(=O)N(C)Cc1ccccc1
inactive: [7] 107 % of control | [2] 104 % of control | [8] 115 % of control | [3] 93 % of control | dose: 400.0 mg/kg/injection, schedule: Q01DX009 (ip), vehicle: saline 117 % of control | [4] 104 % of control

Cc1ccc(N2CCN(C3=CCC(C(C)C)CC3)CC2)cc1Cl (stereo not drawn)
inactive: [1] 106 % of control

Cc1ccc(S(=O)(=O)N(C)c2cc(Cl)c(I)cc2Cl)cc1
inactive: [5] 97 % of control | dose: 100.0 mg/kg/injection, schedule: Q04DX003 (ip), vehicle: Klucel (hydroxypropylcellulose) (HPC) 93 % of control and 94 % of control | [6] 97 % of control | dose: 200.0 mg/kg/injection, schedule: Q04DX003 (ip), vehicle: Klucel (hydroxypropylcellulose) (HPC) 98 % of control | [9] 94 % of control | dose: 400.0 mg/kg/injection, schedule: Q04DX003 (ip), vehicle: Klucel (hydroxypropylcellulose) (HPC) 97 % of control and 98 % of control

N=c1ccn(C(=O)C2=Cc3ccccc3OC2)cc1
inactive: dose: 5.0 mg/kg/injection, schedule: Q01DX009 (ip), vehicle: saline with Tween-80 101 % of control | dose: 10.0 mg/kg/injection, schedule: Q01DX009 (ip), vehicle: saline with Tween-80 90 % of control | dose: 10.0 mg/kg/injection, schedule: Q04DX003 (ip), vehicle: saline with Tween-80 100 % of control | dose: 20.0 mg/kg/injection, schedule: Q01DX009 (ip), vehicle: saline with Tween-80 96 % of control | dose: 20.0 mg/kg/injection, schedule: Q04DX003 (ip), vehicle: saline with Tween-80 98 % of control

COC1CC(OC2OC(CO)C(O)C(O)C2O)/C(=C\C#N)C(O)C1OC (stereo not drawn)
inactive: [10] 106 % of control | dose: 50.0 mg/kg/injection, schedule: Q04DX003 (ip), vehicle: saline 103 % of control | [7] 103 % of control | dose: 100.0 mg/kg/injection, schedule: Q04DX003 (ip), vehicle: saline 100 % of control | [8] 101 % of control | dose: 200.0 mg/kg/injection, schedule: Q04DX003 (ip), vehicle: saline 101 % of control

CC1OCC(C[N+](C)(C)C)O1 (stereo not drawn)
inactive: dose: 0.09 mg/kg/injection, schedule: Q04DX002 (ip), vehicle: saline 95 % of control | dose: 0.18 mg/kg/injection, schedule: Q04DX002 (ip), vehicle: saline 106 % of control | dose: 0.37 mg/kg/injection, schedule: Q04DX002 (ip), vehicle: saline 95 % of control | dose: 0.75 mg/kg/injection, schedule: Q04DX002 (ip), vehicle: saline 103 % of control and 109 % of control | dose: 1.5 mg/kg/injection, schedule: Q04DX002 (ip), vehicle: saline 100 % of control and 106 % of control

CCCCCOC(=O)c1cccc2c1-c1ccccc1C2=O
inactive: dose: 100.0 mg/kg/injection, schedule: Q01DX001 (ip), vehicle: other 93 % of control | dose: 200.0 mg/kg/injection, schedule: Q01DX001 (ip), vehicle: other 98 % of control | dose: 400.0 mg/kg/injection, schedule: Q01DX001 (ip), vehicle: other 93 % of control

NC(=O)c1ccc(Cl)c(Cl)c1
inactive: [2] 97 % of control | [3] 95 % of control | [4] 91 % of control

Cc1n(Cc2ccccc2)cc[n+]1C
inactive: dose: 12.5 mg/kg/injection, schedule: Q01DX009 (ip), vehicle: saline 109 % of control and 119 % of control | [11] 100 % of control and 111 % of control | dose: 25.0 mg/kg/injection, schedule: Q01DX009 (ip), vehicle: saline 117 % of control and 119 % of control | [12] 100 % of control | [10] 93 % of control

O=[N+]([O-])c1ccc(N/N=C2/C(=C/c3cccc4ccccc34)CCc3ccccc32)c([N+](=O)[O-])c1
inactive: dose: 100.0 mg/kg/injection, schedule: Q01DX009 (ip), vehicle: Klucel (hydroxypropylcellulose) (HPC) 91 % of control | dose: 200.0 mg/kg/injection, schedule: Q01DX009 (ip), vehicle: Klucel (hydroxypropylcellulose) (HPC) 89 % of control | dose: 400.0 mg/kg/injection, schedule: Q01DX009 (ip), vehicle: Klucel (hydroxypropylcellulose) (HPC) 91 % of control

CCCCOC(OCCCC)C(C)(C)CN(C)C
inactive: [11] 117 % of control | [12] 105 % of control | dose: 50.0 mg/kg/injection, schedule: Q04DX002 (ip), vehicle: saline 98 % of control

O=C(O)CC[P+](c1ccccc1)(c1ccccc1)c1ccccc1
inactive: [2] 90 % of control | [3] 98 % of control | [4] 93 % of control

CC(=O)Nc1ccc(O)c2ccccc12
inactive: dose: 100.0 mg/kg/injection, schedule: Q04DX002 (ip), vehicle: Klucel (hydroxypropylcellulose) (HPC) 92 % of control | dose: 200.0 mg/kg/injection, schedule: Q04DX002 (ip), vehicle: Klucel (hydroxypropylcellulose) (HPC) 89 % of control | dose: 400.0 mg/kg/injection, schedule: Q04DX002 (ip), vehicle: Klucel (hydroxypropylcellulose) (HPC) 99 % of control

CC(=O)c1ccc(C(=O)NCCCc2c(-c3ccccc3)nc(N)[nH]c2=O)cc1
inactive: [5] 94 % of control | [6] 94 % of control | [9] 96 % of control

C1CCC2(CC1)NN2
inactive: dose: 50.0 mg/kg/injection, schedule: Q01DX001 (ip), vehicle: water 101 % of control | dose: 100.0 mg/kg/injection, schedule: Q01DX001 (ip), vehicle: water 104 % of control | dose: 200.0 mg/kg/injection, schedule: Q01DX001 (ip), vehicle: water 98 % of control | dose: 400.0 mg/kg/injection, schedule: Q01DX001 (ip), vehicle: water 103 % of control
